One test concerns HEK293. Kind of test: viability loss in HEK293T cells – cell-based, ATP luminescence, cherry-pick samples, cytotoxicity control, dose response (AID 687005).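 Further: cells exposed to compound for 48 hours.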 The format is functional. The note with it: Homo sapiens.
The nature of test [1]: HEK293 Cytotoxicity Assay Measured in Cell-Based System Using Plate Reader - 7071-01_Inhibitor_Dose_CherryPick_Activity_Set2. The format is functional.
The target of a further test is T1, Leucine aminopeptidase (Plasmodium falciparum 3D7, UniProt Q8IL11).
T1 sequence (Q8IL11 whole entry): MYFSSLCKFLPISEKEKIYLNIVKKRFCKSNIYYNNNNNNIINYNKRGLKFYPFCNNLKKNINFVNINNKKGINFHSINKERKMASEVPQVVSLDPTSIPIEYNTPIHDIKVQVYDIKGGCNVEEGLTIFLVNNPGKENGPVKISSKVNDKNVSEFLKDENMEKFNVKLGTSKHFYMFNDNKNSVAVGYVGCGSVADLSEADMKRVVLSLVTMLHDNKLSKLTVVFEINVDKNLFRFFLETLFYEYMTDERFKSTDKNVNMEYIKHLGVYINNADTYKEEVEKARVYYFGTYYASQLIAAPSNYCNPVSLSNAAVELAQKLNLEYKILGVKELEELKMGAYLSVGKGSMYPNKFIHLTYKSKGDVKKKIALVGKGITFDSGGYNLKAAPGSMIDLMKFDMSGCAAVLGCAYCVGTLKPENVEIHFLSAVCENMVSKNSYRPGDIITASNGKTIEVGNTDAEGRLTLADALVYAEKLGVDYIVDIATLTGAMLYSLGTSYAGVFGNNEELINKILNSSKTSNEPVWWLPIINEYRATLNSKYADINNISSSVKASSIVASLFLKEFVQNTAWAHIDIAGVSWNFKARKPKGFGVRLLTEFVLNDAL
Kind of test: P. falciparum M17LAP inhibitors, primary screen, biochemical, fluorogenic H-Leu-NHMec substrate, 1536-well (AID 1619). The format is functional.

Test [2] is described as follows: THP-1 cell cytotoxicity, dose response, cytotoxicity control for non-replicating M. tuberculosis project (AID 489025). The format is functional.
The target of test [3] is T2, Long-chain-fatty-acid--AMP ligase FadD28 (Mycobacterium tuberculosis, UniProt P9WQ59).
T2 sequence (P9WQ59 whole entry): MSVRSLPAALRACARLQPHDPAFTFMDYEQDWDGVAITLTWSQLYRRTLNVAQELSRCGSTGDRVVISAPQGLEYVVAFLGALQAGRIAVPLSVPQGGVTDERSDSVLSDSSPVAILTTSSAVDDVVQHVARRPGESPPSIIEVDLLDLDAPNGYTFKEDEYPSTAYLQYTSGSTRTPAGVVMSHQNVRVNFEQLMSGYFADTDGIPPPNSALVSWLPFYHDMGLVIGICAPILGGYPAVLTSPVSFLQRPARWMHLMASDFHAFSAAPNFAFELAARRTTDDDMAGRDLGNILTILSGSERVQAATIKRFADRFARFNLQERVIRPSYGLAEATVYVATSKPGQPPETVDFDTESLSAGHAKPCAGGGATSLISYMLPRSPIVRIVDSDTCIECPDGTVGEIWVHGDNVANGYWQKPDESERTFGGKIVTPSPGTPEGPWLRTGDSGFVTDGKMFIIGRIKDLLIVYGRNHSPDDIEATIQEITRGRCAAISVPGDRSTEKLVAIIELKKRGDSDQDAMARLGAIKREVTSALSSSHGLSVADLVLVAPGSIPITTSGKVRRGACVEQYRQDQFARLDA
Put plainly: Fluorescence polarization aasay to screen for inhibitors that compete for the binding of FadD28 to a bisubstrate Measured in Biochemical System Using Plate Reader - 2147-01_Inhibitor_Dose_CherryPick_Activity. The format is functional, Mycobacterium tuberculosis H37Rv. A general note: Polarisation of emitted light reports the rotation of a fluorescent probe.

In the next test the target is Kallikrein-7 (Homo sapiens, UniProt P49862). Kind of test: Fluorescence Intensity-based biochemical primary high throughput dose response assay to identify activators of kallikrein-7 (K7) zymogen.
Test [4] concerns the target Voltage-dependent T-type calcium channel subunit alpha-1H (Homo sapiens, UniProt O95180). The format is functional.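 Further: channel activity triggered by adding a high calcium stimulation buffer.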
A short description of test [5]: blockers of HIV-1 envelope-mediated cell-cell fusion – cherry-pick, dose response (AID 652057). The format is functional, cell-based.
Test [6] in a line: off-target signal loss in HeLa-CEM21 co-culture – HeLa F-luc CTL cells, cherry-picked, counter-screen for HIV-1 Env fusion inhibitor project, dose response (AID 652040).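 Further: potency for signal decrease marking cytotoxic or nonspecific inhibition.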 The format is functional, cell-based. Background: The purpose of a counterscreen is to sort out artefacts and off-target activity.
Test [7] in a line: HIV-1 AD8 envelope cell-cell fusion blockers – cherry-pick, dose response (AID 652062).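 Further: luciferase signal from cell-cell fusion driven by HIV-1 clade B AD8 Env; potency is for inhibitors of fusion seen as a drop in luminescence.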 The format is functional, cell-based.
Test [8] has as its target T3, Fatty acid synthase (Homo sapiens, UniProt P49327). Kind of test: inhibition of human FAS-TE enzyme activity – biochemical, endpoint fluorescence intensity, uHTS hits, dose response (AID 624327).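 Further: fluorescence from hydrolysis of an O-methyl fluorescein acyl ester substrate by the enzyme.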 The format is functional.
Test [9] addresses T3, Fatty acid synthase. Kind of test: inhibition of human FAS-TE enzyme activity – biochemical, kinetic fluorescence intensity, dose response (AID 624326).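 Further: rate of fluorescence rise from hydrolysis of a fluorogenic O-methyl fluorescein ester substrate.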 The format is functional.

Active and inactive are the calls of the source. A value given as a limit tells only on which side of the number the result lay.

Kallikrein-7, sequence (P49862 whole entry): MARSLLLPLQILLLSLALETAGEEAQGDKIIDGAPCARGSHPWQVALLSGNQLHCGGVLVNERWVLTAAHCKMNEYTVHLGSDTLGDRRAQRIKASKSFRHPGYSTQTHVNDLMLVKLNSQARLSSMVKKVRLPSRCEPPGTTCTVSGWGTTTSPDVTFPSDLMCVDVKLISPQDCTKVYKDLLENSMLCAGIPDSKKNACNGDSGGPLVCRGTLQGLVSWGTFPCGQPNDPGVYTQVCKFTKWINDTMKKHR
T3 sequence (P49327 whole entry): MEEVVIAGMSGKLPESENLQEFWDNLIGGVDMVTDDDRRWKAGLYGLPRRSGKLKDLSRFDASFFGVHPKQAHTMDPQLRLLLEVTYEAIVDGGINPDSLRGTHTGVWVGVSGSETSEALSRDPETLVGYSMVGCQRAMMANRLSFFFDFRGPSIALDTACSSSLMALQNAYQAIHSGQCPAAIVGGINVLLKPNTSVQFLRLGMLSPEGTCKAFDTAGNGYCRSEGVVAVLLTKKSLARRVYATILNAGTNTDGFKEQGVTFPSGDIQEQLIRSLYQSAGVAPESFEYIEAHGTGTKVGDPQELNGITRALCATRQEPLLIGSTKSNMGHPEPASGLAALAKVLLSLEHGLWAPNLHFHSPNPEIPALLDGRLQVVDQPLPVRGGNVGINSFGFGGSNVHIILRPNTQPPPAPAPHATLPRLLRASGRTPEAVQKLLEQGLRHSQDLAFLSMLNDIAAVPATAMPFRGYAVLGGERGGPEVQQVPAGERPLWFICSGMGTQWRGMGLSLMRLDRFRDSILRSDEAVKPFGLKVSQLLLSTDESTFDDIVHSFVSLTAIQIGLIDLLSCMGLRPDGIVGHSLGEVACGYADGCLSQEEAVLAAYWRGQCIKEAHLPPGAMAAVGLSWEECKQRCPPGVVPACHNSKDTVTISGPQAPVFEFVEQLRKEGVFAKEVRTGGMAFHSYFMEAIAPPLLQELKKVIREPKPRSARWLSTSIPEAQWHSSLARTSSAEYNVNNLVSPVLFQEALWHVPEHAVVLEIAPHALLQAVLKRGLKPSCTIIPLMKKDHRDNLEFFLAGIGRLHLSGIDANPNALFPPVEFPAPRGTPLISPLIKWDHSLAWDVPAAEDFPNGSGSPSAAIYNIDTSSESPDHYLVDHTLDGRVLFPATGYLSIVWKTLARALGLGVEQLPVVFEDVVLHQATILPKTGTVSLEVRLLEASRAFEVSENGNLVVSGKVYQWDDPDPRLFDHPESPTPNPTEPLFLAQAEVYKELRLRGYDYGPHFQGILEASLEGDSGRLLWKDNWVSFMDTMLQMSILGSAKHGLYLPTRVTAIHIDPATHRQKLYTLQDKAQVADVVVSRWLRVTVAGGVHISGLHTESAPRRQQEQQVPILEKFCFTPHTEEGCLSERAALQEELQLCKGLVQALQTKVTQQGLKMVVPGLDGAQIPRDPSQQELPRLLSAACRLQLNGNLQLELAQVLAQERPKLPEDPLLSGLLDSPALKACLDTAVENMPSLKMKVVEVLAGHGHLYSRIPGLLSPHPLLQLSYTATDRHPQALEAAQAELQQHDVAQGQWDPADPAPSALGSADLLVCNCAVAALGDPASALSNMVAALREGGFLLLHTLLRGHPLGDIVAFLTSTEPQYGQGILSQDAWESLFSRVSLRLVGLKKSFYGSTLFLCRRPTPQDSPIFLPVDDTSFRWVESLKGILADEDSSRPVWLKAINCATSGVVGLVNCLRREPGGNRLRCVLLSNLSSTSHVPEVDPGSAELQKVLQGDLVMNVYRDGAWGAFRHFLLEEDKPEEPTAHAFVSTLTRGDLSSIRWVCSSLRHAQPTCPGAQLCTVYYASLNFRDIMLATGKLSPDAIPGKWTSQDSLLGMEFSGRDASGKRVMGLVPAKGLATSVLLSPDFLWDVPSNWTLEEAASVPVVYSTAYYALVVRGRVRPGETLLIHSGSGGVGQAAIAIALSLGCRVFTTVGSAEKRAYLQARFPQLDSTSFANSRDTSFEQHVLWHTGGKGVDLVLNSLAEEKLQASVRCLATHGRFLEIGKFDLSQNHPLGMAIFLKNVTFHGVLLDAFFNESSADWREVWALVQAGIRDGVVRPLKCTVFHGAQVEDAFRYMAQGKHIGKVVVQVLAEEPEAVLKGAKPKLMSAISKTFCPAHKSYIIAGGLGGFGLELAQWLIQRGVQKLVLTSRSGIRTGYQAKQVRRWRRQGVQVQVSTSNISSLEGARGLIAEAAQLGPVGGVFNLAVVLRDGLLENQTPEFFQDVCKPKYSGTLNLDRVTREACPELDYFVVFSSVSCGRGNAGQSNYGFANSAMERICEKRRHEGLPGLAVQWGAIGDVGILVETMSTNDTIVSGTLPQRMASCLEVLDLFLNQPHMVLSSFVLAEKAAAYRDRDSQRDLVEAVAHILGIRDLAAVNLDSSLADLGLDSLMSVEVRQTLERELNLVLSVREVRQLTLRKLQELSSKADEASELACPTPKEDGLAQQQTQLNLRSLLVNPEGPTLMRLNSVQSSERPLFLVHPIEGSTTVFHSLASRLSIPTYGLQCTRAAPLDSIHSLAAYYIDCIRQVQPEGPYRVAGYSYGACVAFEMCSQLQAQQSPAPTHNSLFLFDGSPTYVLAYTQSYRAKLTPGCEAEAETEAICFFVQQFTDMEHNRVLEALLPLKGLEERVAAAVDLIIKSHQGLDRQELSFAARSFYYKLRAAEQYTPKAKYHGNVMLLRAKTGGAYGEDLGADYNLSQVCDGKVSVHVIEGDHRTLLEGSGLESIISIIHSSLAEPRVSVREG
Voltage-dependent T-type calcium channel subunit alpha-1H, sequence (O95180 whole entry, the tested form may be a part): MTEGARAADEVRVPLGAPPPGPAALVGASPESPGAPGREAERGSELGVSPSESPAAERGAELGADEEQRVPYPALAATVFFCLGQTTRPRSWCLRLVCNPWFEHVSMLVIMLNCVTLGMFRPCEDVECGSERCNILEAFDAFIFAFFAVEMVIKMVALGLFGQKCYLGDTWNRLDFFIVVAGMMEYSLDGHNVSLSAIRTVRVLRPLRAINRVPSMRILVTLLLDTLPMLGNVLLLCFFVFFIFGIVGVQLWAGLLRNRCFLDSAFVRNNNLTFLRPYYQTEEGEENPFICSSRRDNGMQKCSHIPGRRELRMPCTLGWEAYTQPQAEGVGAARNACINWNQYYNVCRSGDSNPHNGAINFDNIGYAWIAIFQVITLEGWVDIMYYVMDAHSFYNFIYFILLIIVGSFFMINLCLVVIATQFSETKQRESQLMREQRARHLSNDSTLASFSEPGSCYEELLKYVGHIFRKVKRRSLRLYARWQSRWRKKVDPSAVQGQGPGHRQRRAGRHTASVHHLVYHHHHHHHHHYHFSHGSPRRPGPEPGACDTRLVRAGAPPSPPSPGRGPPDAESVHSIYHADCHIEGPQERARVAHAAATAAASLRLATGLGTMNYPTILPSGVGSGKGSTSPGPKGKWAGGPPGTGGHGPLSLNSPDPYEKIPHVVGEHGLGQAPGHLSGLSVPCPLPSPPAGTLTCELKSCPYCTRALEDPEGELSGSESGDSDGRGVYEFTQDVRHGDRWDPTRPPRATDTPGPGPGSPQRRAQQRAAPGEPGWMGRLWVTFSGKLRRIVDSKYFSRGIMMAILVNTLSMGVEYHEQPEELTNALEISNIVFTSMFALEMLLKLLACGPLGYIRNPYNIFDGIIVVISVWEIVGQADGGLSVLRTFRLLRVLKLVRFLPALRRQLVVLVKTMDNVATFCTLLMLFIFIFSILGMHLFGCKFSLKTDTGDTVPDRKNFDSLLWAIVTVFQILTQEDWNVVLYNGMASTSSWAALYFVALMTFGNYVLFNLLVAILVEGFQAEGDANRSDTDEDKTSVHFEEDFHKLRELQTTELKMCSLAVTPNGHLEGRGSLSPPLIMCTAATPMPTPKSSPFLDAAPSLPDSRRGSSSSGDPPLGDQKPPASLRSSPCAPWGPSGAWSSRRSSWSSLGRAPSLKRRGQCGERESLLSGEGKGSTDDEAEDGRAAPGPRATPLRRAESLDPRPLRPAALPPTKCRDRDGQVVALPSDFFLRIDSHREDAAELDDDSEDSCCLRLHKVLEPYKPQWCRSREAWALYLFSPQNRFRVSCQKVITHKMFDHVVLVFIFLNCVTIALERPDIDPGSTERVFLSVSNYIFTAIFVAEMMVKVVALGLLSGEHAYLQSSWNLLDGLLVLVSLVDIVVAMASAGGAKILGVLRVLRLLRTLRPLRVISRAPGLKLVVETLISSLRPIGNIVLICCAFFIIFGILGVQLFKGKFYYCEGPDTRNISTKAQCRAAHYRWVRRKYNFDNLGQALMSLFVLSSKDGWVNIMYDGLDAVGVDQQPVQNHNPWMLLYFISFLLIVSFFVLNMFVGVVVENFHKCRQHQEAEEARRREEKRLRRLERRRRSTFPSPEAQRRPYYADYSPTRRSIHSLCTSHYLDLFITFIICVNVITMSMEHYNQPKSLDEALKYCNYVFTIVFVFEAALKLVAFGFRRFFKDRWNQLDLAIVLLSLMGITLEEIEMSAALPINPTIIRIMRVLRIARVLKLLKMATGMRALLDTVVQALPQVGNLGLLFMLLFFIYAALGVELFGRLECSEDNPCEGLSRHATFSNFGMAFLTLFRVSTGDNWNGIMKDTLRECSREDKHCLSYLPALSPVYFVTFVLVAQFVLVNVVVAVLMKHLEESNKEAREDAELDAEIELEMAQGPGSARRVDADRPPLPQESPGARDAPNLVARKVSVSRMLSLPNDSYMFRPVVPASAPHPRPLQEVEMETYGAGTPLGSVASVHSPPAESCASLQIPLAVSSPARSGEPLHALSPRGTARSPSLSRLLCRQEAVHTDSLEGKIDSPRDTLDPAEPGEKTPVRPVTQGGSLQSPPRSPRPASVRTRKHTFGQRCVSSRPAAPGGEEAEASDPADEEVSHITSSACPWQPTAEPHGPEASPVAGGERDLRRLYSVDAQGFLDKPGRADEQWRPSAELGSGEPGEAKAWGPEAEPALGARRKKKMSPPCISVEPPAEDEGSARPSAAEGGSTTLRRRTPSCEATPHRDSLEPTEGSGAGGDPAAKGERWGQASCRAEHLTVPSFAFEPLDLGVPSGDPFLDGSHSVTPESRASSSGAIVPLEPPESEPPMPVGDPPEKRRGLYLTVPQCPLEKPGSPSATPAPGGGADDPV

One may read the AC50 as the midpoint of the concentration-response curve, whichever way the signal moves. As to `COC(=O)C1=C(C)N(Cc2ccccc2)C(=O)N[C@H]1c1cccc(F)c1`, the AC50 (with HEK293; in test [1]) was 24.6 µM (active) throughout.

In general, IC50 refers to the concentration that gives 50% inhibition. Usually CC50 stands for the concentration that lowers cell viability or growth by half. Consider `O=C(Nc1sc2c(c1C(=O)O)CCCCC2)c1ccccc1F`, for which the half-inhibitory concentration (IC50) on Leucine aminopeptidase is 71 µM (active). Moreover, the CC50 in test [2] was > 40 µM (active). The AC50 in [3] is > 100 µM (inactive).

Regarding `C[C@@H]1CN([C@H](C)CO)S(=O)(=O)c2ccc(C#Cc3ccccn3)cc2O[C@H]1CN(C)Cc1ccccc1`, the AC50 (in the test with HEK293; in test [1]) was 5.16 µM (active) in each case.

One may read the EC50 as the concentration at which the effect is half-maximal. Regarding `Cc1ccc(-c2cn3cccnc3n2)cc1NC(=O)c1ccc(Br)o1`, the EC50 on Kallikrein-7 was > 69.5 µM (inactive).

As to `Cc1ccc(CSCCNC(=O)c2ccc(Cl)c(S(=O)(=O)N3CCOCC3)c2)cc1`, in [4], the EC50 is 4.41 µM (active). Besides, the AC50 is 5.54 µM (active) in test [3], 25.3 µM (active) in [5], 54.5 µM (active) in [6] and 7.44 µM (active) in test [7].

For `COc1ccc(OC)c(/C=C/C(=O)OCC(=O)NCc2ccco2)c1`, at Kallikrein-7, the EC50 is > 69.5 µM (inactive).

For the compound `O=C(COC(=O)c1cc([N+](=O)[O-])ccc1N1CCOCC1)Nc1ncc(Cl)cc1Cl`, the IC50 at Fatty acid synthase [8] is 8.79 µM (active); at Fatty acid synthase [9], 7.24 µM (active).

On to `Cc1ccc(NC(=O)CCNS(=O)(=O)c2cc(Br)cnc2N)cc1Cl`, for which the concentration for half-maximal inhibition (IC50) on Fatty acid synthase [8] is 10.3 µM (active); at Fatty acid synthase [9] it was 16.1 µM (active).

For `Cc1coc2c1c(C)cc1oc(=O)c(CC(=O)NCCCCCC(=O)O)c(C)c12`, the EC50 on Kallikrein-7 was > 69.5 µM (inactive).

Source of the values: ChEMBL document CHEMBL1201862, “PubChem BioAssay data set” (2004).
